For data set [1], the system named is Purkinje fiber of the right ventricular free wall. The data set is described as follows: Influence on Myocardial Action Potential Duration Time (APD75). In kind it is cell-based, hybrid adult dog. As to conditions: Canis lupus familiaris, 20 min, 20 minutes' incubation, 1 Hz, 37° C.; for percent prolongation of action potential duration (APD75) at 1 µg/mL: Dose 1.0 (μg, ml); for percent prolongation of action potential duration (APD75) at 3 µg/mL: Dose 3.0 (μg, ml); for percent prolongation of action potential duration (APD75) at 10 µg/mL: Dose 10.0 (μg, ml). On the procedure: To a hybrid adult dog, 30 mg/kg of pentobarbital was administered through a vein, and after being anesthetized, the heart was removed. Afterward, the right ventricular free wall of the heart was cut and taken out in a Tyrode solution.
The taken right ventricular free wall was fixed in an incubator at 37° C., and a nutritional solution (20 ml of the Tyrode solution) was refluxed.
In this isolated condition, myocardial action potential duration times (APD75) were measured before and after the administration of the respective compounds prepared in the above examples in Table A and d-sotalol as a control medicine, and APD75 (%) was calculated from the measured results in accordance with the formula: […]
A: APD75 before administration
B: APD75 after administration
Here, APD75 was measured as follows: A field stimulation of 1 Hz was given to the right ventricular free wall, and any variation of an action potential was depicted on an oscilloscope via a glass microelectrode (10 to 20 M.OMEGA.) thrust into a Purkinje fiber of the free wall and via an amplifier. Afterward, a waveform on the oscilloscope was analyzed by the use of a computer, and the time of from a point of the action potential generation to a point of 75% repolarization was measured. This measured time was regarded as the myocardial action potential duration time (APD75).
The compounds and d-sotalol shown in Table A were separately added to the refluxing nutritional solution (20 ml), and after 20 minutes' incubation, APD75 after the administration was calculated from the variation of the myocardial action potential duration time.
Incidentally, this test was carried out in accordance with a Sato et al's method [H. Sato, K. Hashimoto, Arzneimeittel Forschung, 34 (1), 3a, 376-380 (1984)].

Data set [2] concerns ventricular muscle (right ventricle). The experiment in a line: Influence on Ventricular Muscle Refractory Period (ERP). The following applies: Canis lupus familiaris, iv, anesthetized dog, read-out: ERP (%; extensibility of refractory period); for change in vivo at 0.1 mg/kg: Dose 0.1 mg/kg i.v.; for change in vivo at 0.3 mg/kg: Dose 0.3 mg/kg i.v.; for change in vivo at 1 mg/kg: Dose 1.0 mg/kg i.v.; for change in vivo at 3 mg/kg: Dose 3.0 mg/kg i.v. It is filed as in vivo, mongrel adult dog. On the procedure:
Refractory periods were measured in the following manner before and after each of the compounds and d-sotalol shown an Table A was separately administered to a vein or a duodenum, and ERP (%; extensibility of refractory period) was calculated from the measured values in accordance with the following formula: […]
W: Refractory period after administration
Y: Refractory period before administration
To a mongrel adult dog, 30 mg/kg of pentobarbital was administered intravenously, and after being anesthetized, a pair of silver-silver chloride electrodes separated by 3 mm was sewn on an opened right ventricule, and electrical stimulation was given at an interval of 400 msec at a duration time of 4 msec under a current twice as much as the threshold. Afterward, a small amount of alcohol was injected into a sinus artery in order to extinguish a pacemaker activity, and the ventricular refractory period (ERP) was measured under ventricule pacing.
That is, 1 train comprised 10 stimulations, and an interval between two of the trains was usually 400 msec. At the time of the refractory period measurement, however, the above interval was shortened every 10 smec, and the interval between the trains at the time when reaction to the first stimulation of the train disappeared was regarded as the refractory period.
In this case, the electrical stimulation was fed in accordance with a program by a heart stimulation device (Diamedical Co., Ltd.; DHM-226-3).

Data set [3] is described as follows: Toxicity Test 1 (oral, mortality 24 hours after administration). As to conditions: mouse, in vivo, 300 mg/kg (P.O), 2 to 4 mice per group, read-out: Mortality Rate (%). As for the experimental part: Each of the compounds prepared in the above-mentioned examples shown in Table B was administered into a mouse (ddy strain, male). In each case, the administration was effected by oral administration in a dose of 300 mg/kg.
A mortality rate (number of specimens: one group=2 to 4 mice) of the mice 24 hours after the administration was calculated, and the results are set forth in Table B.

SMILES strings stand for the structures. Structures can show the parent of a compound that is named as a salt.

One may read the mortality as the share of the test organisms that died. In data set [1] (Dose 0.3 (μg, ml)), `Cn1c(N2CCN(CCCOc3ccc(Cl)cc3)CC2)cc(=O)n(C)c1=O` [Compound 64, 6-[4-(3-[4-chlorophenoxy]propyl)piperazin-1-yl]-1,3-dimethyl-2,4(1H,3H)-pyrimidinedione.hydrochloride] registered a percent prolongation of action potential duration (APD75) at 0.3 µg/mL of 7%. Also, in data set [1], the percent prolongation of action potential duration (APD75) at 1 µg/mL was found to be 14% and the percent prolongation of action potential duration (APD75) at 3 µg/mL came to 25%. Moreover, in data set [2], the change in vivo at 0.1 mg/kg worked out at 2%, the change in vivo at 0.3 mg/kg was found to be 6.3%, the change in vivo at 1 mg/kg was 13% and the change in vivo at 3 mg/kg came to 24.3%. In data set [3], the mortality at 24 h was determined as 0%.
In data set [1], `Cn1c(N2CCN(CCCOc3ccc(-n4cncn4)cc3)CC2)cc(=O)n(C)c1=O` [Compound 6] gave a percent prolongation of action potential duration (APD75) at 1 µg/mL of 5%, a percent prolongation of action potential duration (APD75) at 3 µg/mL of 10% and a percent prolongation of action potential duration (APD75) at 10 µg/mL of 25%. For the same compound, in data set [2], the change in vivo at 0.1 mg/kg worked out at 0%, the change in vivo at 0.3 mg/kg turned out to be 0%, the change in vivo at 1 mg/kg is 0% and the change in vivo at 3 mg/kg is 6.2%. For the same compound, in data set [3], the mortality at 24 h worked out at 0%.
As for `Cn1c(N2CCN(CCCOc3ccccc3N)CC2)cc(=O)n(C)c1=O` [Compound 69], in data set [1], the percent prolongation of action potential duration (APD75) at 3 µg/mL is 24% and the percent prolongation of action potential duration (APD75) at 10 µg/mL is 34%. Also, in data set [2], the change in vivo at 0.1 mg/kg came to 0%, the change in vivo at 0.3 mg/kg was determined as 6.3% and the change in vivo at 1 mg/kg is 12.5%. For the same compound, in data set [3], the mortality at 24 h was determined as 0%.
In data set [1], `COC(=O)c1ccccc1OCCCN1CCN(c2cc(=O)n(C)c(=O)n2C)CC1` [Compound 21] showed a percent prolongation of action potential duration (APD75) at 1 µg/mL of 11%, a percent prolongation of action potential duration (APD75) at 3 µg/mL of 23% and a percent prolongation of action potential duration (APD75) at 10 µg/mL of 26%. For the same compound, in data set [2], the change in vivo at 0.1 mg/kg amounted to 7.1%, the change in vivo at 0.3 mg/kg was 7.1%, the change in vivo at 1 mg/kg came out at 7.1% and the change in vivo at 3 mg/kg was 14.3%. For the same compound, the mortality at 24 h in data set [3] came to 0%.

The values are drawn from patent publication US5332739A, “Pyrimidinedione derivatives and antiarrhythmic agents containing same” (Mitsui Toatsu Chemicals, Incorporated, priority 1990, dated 1994).
